The source of these data is patent US10519118B2, “KDM1A inhibitors for the treatment of disease” (Imago Biosciences, Inc., priority 2015, dated 2019).

Assay type in all cases: physicochemical
A short description of series [1]: Solid-state storage stability at elevated temperature and humidity (40° C./75% RH, 25° C./95-97% RH).
Series [2] is described as follows: Gravimetric vapour sorption (GVS), hygroscopicity. The following applies: for hygroscopicity: in words. The procedure: Typically 5-20 mg of sample was placed in a tared mesh stainless steel basket under ambient conditions. The sample was loaded and unloaded at 40% RH and 25° C. (typical room conditions). A moisture sorption isotherm was performed as outlined below (2 scans giving 1 complete cycle). The standard isotherm was performed at 25° C. at 10% RH intervals over a 0-90% RH range. Data analysis was carried out using Microsoft Excel using DVS Analysis Suite v6.2 (or 6.1 or 6.0).
Sorption isotherms were obtained using a SMS DVS Intrinsic moisture sorption analyzer, controlled by DVS Intrinsic Control software v1.0.1.2 (or v 1.0.1.3). The sample temperature was maintained at 25° C. by the instrument controls. The humidity was controlled by mixing streams of dry and wet nitrogen, with a total flow rate of 200 mL/min The relative humidity was measured by a calibrated Rotronic probe (dynamic range of 1.0-100% RH), located near the sample. The weight change, (mass relaxation) of the sample as a function of % RH was constantly monitored by the microbalance (accuracy±0.005 mg).

Series [3] can be described thus: Solvent solubility assessment with increasing volumes of solvent. Also on record: key to Solubility observation: # = clear solution; x = suspension. As for the experimental part: Example 1 was treated with increasing volumes of solvent (2-propanol (IPA), acetone, methylethyl ketone, ethyl acetate, tetrahydrofuran, acetonitrile, 1,4-dioxane, 90:10 IPA:water, 90:10 THF:water, tert-butylmethyl ether (MTBE), and n-heptane) until the material fully dissolved or until a maximum of 100 vol. had been used. After each addition of solvent, the system was stirred at 25° C. for 10 min before the addition of a new aliquot of solvent. Example 1 was readily soluble in 2-propanol (IPA), acetone, methylethyl ketone, ethyl acetate, tetrahydrofuran, acetonitrile, 1,4-dioxane, 90:10 IPA:water, and 90:10 THF:water, dissolving readily in 10 vol. solvent. MTBE and n-heptane were identified as anti-solvents when Example 1 was not soluble in 100 vol. solvent.
Amorphous Example 1 (10 mg) was treated with increasing volumes of solvent at 25° C. with stirring (Table #). […] For those instances where dissolution was not observed, the samples were placed at 50° C. for 10 minutes. To all samples still in suspension, a further 10 volumes of solvents were added and the sample placed at 25° C. The temperature was then once again increased to 50° C. and maintained until the end of the experiment. Further solvent was added until the material fully dissolved or until a maximum of 70 volumes had been used. Hydrochloric acid was then added (1.1 equivalents) to all samples. A cooling ramp was set to 5° C. at 0.1° C./min and the solutions or oils were stirred at this temperature overnight, yielding oils or solutions.
Crystalline bis tosylate Form 2 (30 mg) was treated with increasing volumes of solvent (n-Heptane, diethyl ether, ethyl acetate, isopropyl acetate, methylisobutyl ketone, 2-propanol, methylethyl ketone, acetone, dimethyl sulfoxide, water, tert-butylmethyl ether, cyclohexane, 1,4-dioxane, toluene, chloroform, 1,2-dimethoxyethane, tetrahydrofuran, N,N-dimethylformamide, acetonitrile, nitromethane, N-methylpyrrolidone, tetrahydrofuran:water 95:5, 2-propanol:water 95:5, or acetone:water 95:5 at 5, 10, 20, 30, 50, 70, or 100 vol total) until the material fully dissolved or until a maximum of 100 vol had been added. After each addition of solvent, the system was shaken gently for 10 minutes at 50° C. and then allowed to stand at ambient conditions for 5 minutes before the addition of a new aliquot of solvent. After the assessment was completed, any suspensions obtained were matured and clear solutions were cooled to 4° C. and held isothermally.

Series [4] in a line: Chemical stability of Example 1 free base lots, HPLC purity re-test. The procedure:
Various lots of Example 1 were analyzed by HPLC shortly after synthesis (analysis from 1-24 hours post-synthesis) and re-tested for purity a unit of time later.
Purity analysis was performed on an Agilent HP1100 series system equipped with a diode array detector and using ChemStation software vB.04.03 using one of the methods detailed below: […]

“And” between values parts separate entries of the source, which are not always exact repeats. Equal values may be shown once. Bounds are passed on as bounds.

Consider `O=C(O)C(O)C(O)C(=O)O` (stereo not drawn) [tartrate], for which the “Storage at 40° C. and 75% RH (form by XRPD)” value in series [1] (one week / 7 days) was “no change in form was observed”. Moreover, the “Storage at both 40° C. and 75% RH and 25° C. and 95% RH (form, purity)” value in series [1] (scaled-up salts) is “changes in crystallinity and form”. The GVS water uptake in series [2] (25° C., full cycle 0-90% RH) is on record as roughly 30 % w/w. In addition, the hygroscopicity result in series [2] is “highly hygroscopic”.

Turning to `CN1CCN(C(=O)C(CN[C@@H]2C[C@H]2c2ccc(F)cc2)NC(=O)c2ccc(-n3ccnn3)cc2)CC1` (stereo partly drawn) [Example 1, N-[3-[[(1R,2S)-2-(4-Fluorophenyl)cyclopropyl]amino]-1-(4-methylpiperazin-1-yl)-1-oxopropan-2-yl]-4-(1H-1,2,3-triazol-1-yl)benzamide], in series [1] (free base form), the “behaviour at high humidity” value is on record as “deliquesces”. The “stability at elevated storage conditions” value in series [1] (free base, 25° C./97% RH and 40° C./75% RH) was “deliquesced”. Moreover, the Solubility observation result in series [3] (1-Butanol, 10 vol 25° C.) is recorded as “#”; in series [3] (1-Propanol, 10 vol 25° C.), “#”; in series [3] (2-Propanol, 10 vol 25° C.) it was “#”; in series [3] (Acetone, 10 vol 25° C.) it was “#”; in series [3] (Acetone:Water (90:10), 10 vol 25° C.), “#”; in series [3] (Acetone:Water (95:5), 10 vol 25° C.), “#”. For the same compound, the Solubility observation result was “#” in series [3] (Acetonitrile, 10 vol 25° C.); “#” in series [3] (Anisole, 10 vol 25° C.); “oil” in series [3] (Cyclohexane, 10 vol 25° C.); “oil” in series [3] (Cyclohexane, 10 vol 50° C.); “oil” in series [3] (Cyclohexane, 20 vol 25° C.); “oil” in series [3] (Cyclohexane, 20 vol 50° C.). In addition, the Solubility observation result in series [3] (Cyclohexane, 40 vol 50° C.) was “oil”; in series [3] (Cyclohexane, 70 vol 50° C.) it was “oil”; in series [3] (Dichloromethane, 10 vol 25° C.), “#”; in series [3] (Diethyl ether, 10 vol 25° C.), “oil”; in series [3] (Diethyl ether, 10 vol 50° C.) it was “oil”; in series [3] (Diethyl ether, 20 vol 25° C.), “oil”. For the same compound, the Solubility observation entry is reported as “oil” in series [3] (Diethyl ether, 20 vol 50° C.); “oil” in series [3] (Diethyl ether, 40 vol 50° C.); “oil” in series [3] (Diethyl ether, 70 vol 50° C.); “#” in series [3] (Dimethyl sulfoxide, 10 vol 25° C.); “#” in series [3] (EtOH:Water (85:15), 10 vol 25° C.); “#” in series [3] (Ethanol, 10 vol 25° C.). The Solubility observation result in series [3] (IPA:Water (85:15), 10 vol 25° C.) is listed as “#”; in series [3] (Isopropyl acetate, 10 vol 25° C.), “#”; in series [3] (MEK, 10 vol 25° C.), “#”; in series [3] (MIBK, 10 vol 25° C.), “#”; in series [3] (MeOH:Water (85:15), 10 vol 25° C.) it was “#”; in series [3] (Methanol, 10 vol 25° C.), “#”. For the same compound, the Solubility observation entry in series [3] (Methyl acetate, 10 vol 25° C.) was “#”; in series [3] (Propyl acetate, 10 vol 25° C.), “#”; in series [3] (Toluene, 10 vol 25° C.), “#”; in series [3] (Water, 10 vol 25° C.), “x”; in series [3] (Water, 10 vol 50° C.) it was “x”; in series [3] (Water, 20 vol 25° C.) it was “x”. The Solubility observation entry was “oil” in series [3] (Water, 20 vol 50° C.); “oil” in series [3] (Water, 40 vol 50° C.); “oil” in series [3] (Water, 70 vol 50° C.). The “solvent volume needed to dissolve” value in series [3] (25° C., IPA, acetone, methylethyl ketone, ethyl acetate, THF, acetonitrile, 1,4-dioxane, 90:10 IPA:water, 90:10 THF:water) was 10 vol; in series [3] (25° C., MTBE and n-heptane (anti-solvents)), greater than 100 vol; in series [3] (amorphous free base, most solvents at 25° C.) it was 10 volumes. In series [3] (amorphous free base, water, diethyl ether, cyclohexane, up to 70 volumes, 25-50° C.), the observation in solvent result is “oils eventually formed”. The hygroscopicity entry in series [2] is “hygroscopic”. Also, the “Re-Test Purity” value was found to be 82% in series [4] (free base Lot 1, 49 days between tests) and 72% in series [4] (free base Lot 2, 16 days between tests). The “stability at ambient conditions” value in series [4] (free base form) is reported as “degrades at ambient conditions over time”. In addition, the “Initial Purity” value in series [4] (free base lots, HPLC 1-24 hours post-synthesis) is 93% and 81%.

As for `CN1CCN(C(=O)[C@H](CCCN[C@@H]2C[C@H]2c2ccc(F)cc2)NC(=O)c2ccc(-n3ccnn3)cc2)CC1.Cc1ccc(S(=O)(=O)O)cc1.Cc1ccc(S(=O)(=O)O)cc1` [Example 1 bis tosylate Form 2, N—((S)-5-((1R,2S)-2-(4-fluorophenyl)cyclopropylamino)-1-(4-methylpiperazin-1-yl)-1-oxopentan-2-yl)-4-(1H-1,2,3-triazol-1-yl)benzamide bis-tosylate Form 2], the “solvent volume needed to dissolve” value in series [3] (crystalline bis tosylate Form 2, all other solvents tested incl. water, remained a suspension) is reported as greater than 100 vol; in series [3] (crystalline bis tosylate Form 2, dimethylsulfoxide and N,N-dimethylformamide, 50° C. shaking) it was 5 vol; in series [3] (crystalline bis tosylate Form 2, tetrahydrofuran:water 95:5), 10 vol.
